Assay results taken from patent US20200239530A1, “COMPOUNDS AND METHODS OF MODULATING PROTEIN DEGRADATION” (Vividion Therapeutics, Inc., priority 2017, published 2020).

What was measured:
Experiment in all cases: Cysteine liganding, probe competition
Type in all cases: binding
[1] = target: T1, VRK3 Inactive serine/threonine-protein kinase VRK3 (Homo sapiens, UniProt Q8IV63)
T1 construct: Cells were resuspended in cold PBS on ice and sonicated with a probe sonicator to achieve lysis; endogenous in cells
T1 sequence (Q8IV63 1-474): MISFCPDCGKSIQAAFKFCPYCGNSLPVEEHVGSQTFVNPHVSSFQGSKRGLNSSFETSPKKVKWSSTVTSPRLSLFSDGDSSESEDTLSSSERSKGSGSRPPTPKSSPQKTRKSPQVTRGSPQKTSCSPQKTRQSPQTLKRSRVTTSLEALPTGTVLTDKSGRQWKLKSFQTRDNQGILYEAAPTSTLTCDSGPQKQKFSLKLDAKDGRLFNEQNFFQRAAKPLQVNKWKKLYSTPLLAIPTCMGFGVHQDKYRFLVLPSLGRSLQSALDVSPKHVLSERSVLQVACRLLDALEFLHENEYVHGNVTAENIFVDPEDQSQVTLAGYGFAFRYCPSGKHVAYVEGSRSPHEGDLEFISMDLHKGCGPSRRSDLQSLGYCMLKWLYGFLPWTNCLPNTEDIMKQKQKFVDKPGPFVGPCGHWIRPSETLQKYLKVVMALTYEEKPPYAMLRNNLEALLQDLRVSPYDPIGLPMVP
In short: (§1)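 Lysates from probe-sonicated cells in PBS (5 mg/ml proteome) were exposed to compound for 1 hr at 25° C, then labelled with desthiobiotin iodoacetamide probe (10 mM stock) for 1 hr at 25° C. Probe-tagged peptides were streptavidin-enriched after trypsin digestion.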

[2] = target: T2, ACAA2 3-ketoacyl-CoA thiolase, mitochondrial (Homo sapiens, UniProt P42765)
T2 construct: Cells were resuspended in cold PBS on ice and sonicated with a probe sonicator to achieve lysis; endogenous in cells
T2 sequence (P42765 1-397): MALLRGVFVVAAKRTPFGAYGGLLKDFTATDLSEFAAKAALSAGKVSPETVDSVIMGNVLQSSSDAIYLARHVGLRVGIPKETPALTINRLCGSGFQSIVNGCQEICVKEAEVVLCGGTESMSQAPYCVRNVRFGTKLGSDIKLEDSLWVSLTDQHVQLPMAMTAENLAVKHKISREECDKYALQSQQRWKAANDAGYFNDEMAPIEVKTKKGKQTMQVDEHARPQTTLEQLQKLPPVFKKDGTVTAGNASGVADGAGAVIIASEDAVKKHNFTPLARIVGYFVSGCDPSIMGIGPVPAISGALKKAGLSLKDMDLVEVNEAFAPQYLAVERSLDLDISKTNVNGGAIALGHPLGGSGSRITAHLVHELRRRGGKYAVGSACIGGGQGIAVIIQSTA
In short: as §1

[3] = target: T3, PPCDC Phosphopantothenoylcysteine decarboxylase (Homo sapiens, UniProt Q96CD2)
T3 construct: Cells were resuspended in cold PBS on ice and sonicated with a probe sonicator to achieve lysis; endogenous in cells
T3 sequence (Q96CD2 1-204): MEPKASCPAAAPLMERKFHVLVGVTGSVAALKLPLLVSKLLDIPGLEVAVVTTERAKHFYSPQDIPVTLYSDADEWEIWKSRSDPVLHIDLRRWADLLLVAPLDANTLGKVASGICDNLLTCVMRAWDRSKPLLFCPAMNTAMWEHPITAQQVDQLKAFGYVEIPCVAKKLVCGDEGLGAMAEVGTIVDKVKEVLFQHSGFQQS
In short: as §1

[4] = target: T4, FLYWCH2 FLYWCH family member 2 (Homo sapiens, UniProt Q96CP2)
T4 construct: 200 μL of lysate containing 5 mg/ml proteome was treated with 2 μL of 100× compound stock; endogenous in cells
T4 sequence (Q96CP2 1-140): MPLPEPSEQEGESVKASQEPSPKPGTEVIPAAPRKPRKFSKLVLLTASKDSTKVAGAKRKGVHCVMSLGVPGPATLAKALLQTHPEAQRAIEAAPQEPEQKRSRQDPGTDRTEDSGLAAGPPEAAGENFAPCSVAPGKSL
In short: as §1

| Structure (SMILES) | Liganded ([1]; VRK3 Res# 191, uniprot Q8IV63) | Liganded ([2]; ACAA2 Res# 382, uniprot P42765) | Liganded ([3]; PPCDC Res# 173, uniprot Q96CD2) | Liganded ([4]; FLYWCH2 Res# 64, uniprot Q96CP2) | 100 Max ([1]; uniprot Q8IV63) | 100 ave ([1]; uniprot Q8IV63) | 500 ave ([1]; uniprot Q8IV63) | 500 Max ([1]; uniprot Q8IV63, in % (unit assumed)) | 100 Max ([2]; uniprot P42765) | 100 ave ([2]; uniprot P42765) | 500 Max ([2]; uniprot P42765) | 500 ave ([2]; uniprot P42765) | 100 Max ([3]; uniprot Q96CD2) | 100 ave ([3]; uniprot Q96CD2) | 500 Max ([3]; uniprot Q96CD2) | 500 ave ([3]; uniprot Q96CD2) | 100 Max ([4]; uniprot Q96CP2) | 100 ave ([4]; uniprot Q96CP2) | 500 Max ([4]; uniprot Q96CP2) | 500 ave ([4]; uniprot Q96CP2) |
| --- | --- | --- | --- | --- | --- | --- | --- | --- | --- | --- | --- | --- | --- | --- | --- | --- | --- | --- | --- | --- |
| COc1ccc2c(c1)CCCN2C(=O)CCl [KB02] | YES | YES | YES | YES | – | – | – | – | – | – | – | – | – | – | – | – | – | – | – | – |
| O=C(CCl)Nc1cc(C(F)(F)F)cc(C(F)(F)F)c1 [KBO3] | – | – | – | – | −8.38 | −10.03 | 14.41 | 14.41 | 3.45 | 3.45 | −0.69 | −0.69 | 23.85 | 13.215 | 71.73 | 71.73 | 12.97 | 2.25 | 41.66 | 41.635 |
